In the supplement of paper PMC10307832:

Compound: Cc1ccc2nc(NCCN)c3ncc(C)n3c2c1 + Cc1nc(Nc2ncc(C(=O)Nc3c(C)cccc3Cl)s2)cc(N2CCN(CCO)CC2)n1 [Dasatinib] (partner 0.075 µM)
Experiment: relative viability (nuclei count vs DMSO), 5 days (fraction); higher = more cells survive
Settings: first compound 0.04 µM
In short: (§1)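 Dosing by pin tool came one day after lung cancer cell lines were seeded in 1536-well plates, using either one drug or a fixed anchor-drug dose plus five library-drug doses (not always all listed) in √10 steps. After 5 days, nuclei were counted on 4× images. Relative viability is treated-well nuclei count divided by vehicle-well nuclei count, and values are medians of duplicate plates.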

Cell Line	relative viability
NCI-H1993	0.463
SW 1573	0.576
NCI-H838	0.347
LCLC-103H	0.584
NCI-H520	0.363
NCI-H2126	0.663
EMC-BAC-2	0.339
NCI-H2085	0.207
HCC-366	0.561
NCI-H1666	0.788
NCI-H596	0.677
LK-2	0.251
NCI-H2087	0.893
NCI-H358	0.177
NCI-H2170	0.565
H3255	0.396
COR-L23	0.525
COR-L 105	0.446
LOU-NH91	0.562
ChaGo-K-1	0.551
NCI-H1793	0.386
NCI-H2405	0.204
HOP-62	0.772
SK-MES-1	0.489
LU99A	0.58
HCC-78	0.425
NCI-H1792	0.741
NCI-H1623	0.525
NCI-H1563	0.459

Same assay, conditions: first compound 0.1265 µM

Cell Line	relative viability
NCI-H522	0.966
NCI-H2342	0.363
NCI-H1650	0.312
NCI-H1993	0.651
SW 1573	0.534
NCI-H838	0.336
LCLC-103H	0.495
NCI-H520	0.208
NCI-H2126	0.696
EMC-BAC-2	0.335
NCI-H2085	0.263
HCC-366	0.685
NCI-H1666	0.781
NCI-H596	0.645
LK-2	0.223
NCI-H2087	0.85

Cell Line	relative viability
NCI-H358	0.157
NCI-H2170	0.646
H3255	0.393
COR-L23	0.514
COR-L 105	0.385
LOU-NH91	0.547
ChaGo-K-1	0.659
NCI-H1793	0.417
NCI-H2405	0.192
HOP-62	0.626
SK-MES-1	0.339
LU99A	0.605
HCC-78	0.496
NCI-H1792	0.624
NCI-H1623	0.664
NCI-H1563	0.488

Same assay, conditions: first compound 0.4 µM

Cell Line	relative viability
NCI-H522	0.827
NCI-H2342	0.328
NCI-H727	0.338
NCI-H1650	0.273
NCI-H1993	0.533
SW 1573	0.468
NCI-H838	0.251
LCLC-103H	0.421
NCI-H520	0.229
NCI-H2126	0.592
EMC-BAC-2	0.345
NCI-H2085	0.222
HCC-366	0.672
NCI-H1666	0.849
NCI-H596	0.524
LK-2	0.27
NCI-H2087	0.767

Cell Line	relative viability
NCI-H358	0.182
NCI-H2170	0.58
H3255	0.45
COR-L23	0.518
COR-L 105	0.416
LOU-NH91	0.531
ChaGo-K-1	0.659
NCI-H1793	0.389
NCI-H2405	0.188
HOP-62	0.644
SK-MES-1	0.392
LU99A	0.622
HCC-78	0.364
NCI-H1792	0.816
NCI-H1623	0.523
NCI-H1563	0.539

Same assay, conditions: first compound 1.265 µM

Cell Line	relative viability
NCI-H522	0.806
NCI-H2342	0.284
NCI-H727	0.321
NCI-H1650	0.282
NCI-H1993	0.497
SW 1573	0.48
NCI-H838	0.231
LCLC-103H	0.562
NCI-H520	0.284
NCI-H2126	0.549
EMC-BAC-2	0.276
NCI-H2085	0.196
HCC-366	0.579
NCI-H1666	0.604
NCI-H596	0.524
LK-2	0.229
NCI-H2087	0.87

Cell Line	relative viability
NCI-H358	0.154
NCI-H2170	0.58
H3255	0.383
COR-L23	0.46
COR-L 105	0.402
LOU-NH91	0.539
ChaGo-K-1	0.504
NCI-H1793	0.332
NCI-H2405	0.185
HOP-62	0.634
SK-MES-1	0.35
LU99A	0.54
HCC-78	0.354
NCI-H1792	0.704
NCI-H1623	0.482
NCI-H1563	0.433

Same assay, conditions: first compound 4 µM

Cell Line	relative viability
NCI-H522	0.842
NCI-H2342	0.313
NCI-H727	0.365
NCI-H1650	0.226
NCI-H1993	0.539
SW 1573	0.244
NCI-H838	0.261
LCLC-103H	0.442
NCI-H520	0.262
NCI-H2126	0.493
EMC-BAC-2	0.307
NCI-H2085	0.243
HCC-366	0.629
NCI-H1666	0.77
NCI-H596	0.648
LK-2	0.268
NCI-H2087	0.791

Cell Line	relative viability
NCI-H358	0.22
NCI-H2170	0.564
H3255	0.387
COR-L23	0.403
COR-L 105	0.343
LOU-NH91	0.559
ChaGo-K-1	0.566
NCI-H1793	0.384
NCI-H2405	0.208
HOP-62	0.649
SK-MES-1	0.305
LU99A	0.544
HCC-78	0.303
NCI-H1792	0.382
NCI-H1623	0.494
NCI-H1563	0.454

Compound: Cc1ccc2nc(NCCN)c3ncc(C)n3c2c1 + O=C(CCCCCCC(=O)Nc1ccccc1)NO [Vorinostat] (partner 1 µM)
Experiment: as above
Settings: first compound 0.04 µM
In short: as §1

Cell Line	relative viability
NCI-H522	0.825
NCI-H2342	0.869
NCI-H727	1.3
